Patent US20230407098A1, “METHOD FOR EVALUATING CYSTINE UPTAKE ABILITY OF CELL, KIT FOR EVALUATING CYSTINE UPTAKE ABILITY OF CELL, METHOD FOR DETERMINING SELENOCYSTEINE, AND KIT FOR DETERMINING SELENOCYSTEINE” (DOJINDO LABORATORIES, priority 2021, published 2023)

What was measured:
[1] = biological target: T1, cystine transporter (Homo sapiens, UniProt Q9UPY5); experiment: Inhibition of selenocystine uptake by cystine transporter inhibitor; format: cell-based; settings: HeLa cells, with cystine transporter inhibitor (sulfasalazine or erastin); FIG. 3
T1 construct: endogenous in cells; host or cells: HeLa cells
T1 sequence (Q9UPY5 1-501): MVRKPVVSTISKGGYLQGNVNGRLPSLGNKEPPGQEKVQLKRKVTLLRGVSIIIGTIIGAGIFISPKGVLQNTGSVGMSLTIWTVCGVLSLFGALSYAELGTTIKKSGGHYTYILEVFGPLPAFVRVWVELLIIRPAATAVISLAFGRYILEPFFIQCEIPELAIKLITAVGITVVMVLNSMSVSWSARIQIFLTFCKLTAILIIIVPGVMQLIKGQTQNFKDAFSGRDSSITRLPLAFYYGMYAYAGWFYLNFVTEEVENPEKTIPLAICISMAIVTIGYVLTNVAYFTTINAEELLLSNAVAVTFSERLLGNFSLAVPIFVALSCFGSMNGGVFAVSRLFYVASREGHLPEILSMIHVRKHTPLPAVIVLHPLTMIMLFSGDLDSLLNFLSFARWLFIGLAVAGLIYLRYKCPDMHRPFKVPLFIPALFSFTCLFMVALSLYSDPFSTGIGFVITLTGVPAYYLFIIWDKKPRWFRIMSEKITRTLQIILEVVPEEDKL
T1 sequence (P08195 1-529 partner): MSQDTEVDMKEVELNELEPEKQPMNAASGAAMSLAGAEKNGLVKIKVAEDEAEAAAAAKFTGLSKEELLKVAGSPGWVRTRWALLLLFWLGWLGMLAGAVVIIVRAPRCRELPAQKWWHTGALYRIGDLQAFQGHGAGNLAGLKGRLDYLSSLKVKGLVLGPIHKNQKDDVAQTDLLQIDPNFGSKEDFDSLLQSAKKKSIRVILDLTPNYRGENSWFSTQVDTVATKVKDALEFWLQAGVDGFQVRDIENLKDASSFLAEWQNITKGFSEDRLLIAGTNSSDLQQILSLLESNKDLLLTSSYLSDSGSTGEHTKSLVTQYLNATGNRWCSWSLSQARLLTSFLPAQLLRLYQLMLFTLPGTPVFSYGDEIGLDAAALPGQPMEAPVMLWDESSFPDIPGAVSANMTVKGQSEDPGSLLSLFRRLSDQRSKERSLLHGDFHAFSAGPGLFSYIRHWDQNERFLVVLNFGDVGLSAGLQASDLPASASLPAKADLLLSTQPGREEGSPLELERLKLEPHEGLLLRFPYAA
Experimental: DMEM (cystine-free) containing a cystine transporter inhibitor (sulfasalazine or erastin) was added to HeLa cells, and the cells were incubated in the CO2 incubator (37° C.) for 5 minutes. DMEM (cystine-free) containing 200 μM selenocystine was then added, and the cells were incubated in the CO2 incubator (37° C.) for 30 minutes. After removing the supernatant, the cells were washed with PBS three times and lysed with methanol. Then, 100 mM MES at a pH of 6 containing 10 μM FOdA and 200 μM TCEP was added, and the cells were incubated at 37° C. for 30 minutes. The fluorescence intensity of each solution was then measured with a plate reader (Infinite(R) 200 PRO, excitation wavelength: 485 nm, fluorescence wavelength: 535 nm).

[2] = test system: HeLa cells; experiment: Ability to take selenocystine into cells (FOdA/TCEP fluorescence measurement); format: cell-based, human; settings: selenocystine at concentrations in cystine-free DMEM, 30 minutes, FIG. 2
Experimental: DMEM (cystine-free) was added to HeLa cells, and the cells were incubated in a CO2 incubator (37° C.) for 5 minutes. After the removal of the supernatant, DMEM (cystine-free) containing selenocystine at concentrations was added, and the cells were incubated in the CO 2 incubator (37° C.) for 30 minutes. After removing the supernatant, the cells were washed with PBS three times and then lysed with methanol. Then, 100 mM MES at a pH of 6 containing 10 μM FOdA and 200 μM TCEP was added, and the mixture was incubated at 37° C. for 30 minutes. The fluorescence intensity of each solution was then measured with a plate reader (Infinite(R) 200 PRO, excitation wavelength: 485 nm, fluorescence wavelength: 535 nm).

## N[C@@H](C[Se][Se]C[C@H](N)C(=O)O)C(=O)O [selenocystine]
[1]
  route of selenocystine uptake: taken through cystine transporter
[2]
  fluorescence intensity (selenocystine taken up by the cells): increased depending on the concentration of selenocystine
